Entries after “also recorded” stand apart in the source; their conditions may differ. Like-named read-outs stand apart in the source and are kept apart here.
What was measured:
Pmel CD8+ T cells = settings: for Golgi stress (GM130 expression): TME exhaustion model
Source text: The solid tumor microenvironment is characterized as being highly immunosuppressive, leading to T cell exhaustion. Thus, an in vitro model of TME-induced T cell exhaustion using supernatants collected from B16-F10 murine melanoma cells along with chronic antigen stimulation was used.25 Pmel CD8+ T cells were activated and cultured under optimal culture conditions, with tumor supernatant plus repeated stimulation with gp100, or with tumor supernatant plus repeated stimulation with gp100 plus H2S donor (FIG. 12I). This model was used to determine the impact of T cell exhaustion on Cbs expression and H2S production by gating Pmel T cells on TIM3+PD1+ (terminally exhausted) and TIM3−PD1− cells.
Once the tumors reached a size of approximately 150 mm2, the mice were euthanized and the tumors were removed. The tumors were then processed into single cell suspension using a mouse tumor dissociation kit (Miltenyi, #130-096-730). […] After 5 days of culture without changing the media, the supernatant was removed from the wells and spun down to remove any tumor cells. 3-day activated Pmel T cells were then resuspended in the tumor supernatant along with 0.1 ug/mL of gp100 antigen. To promote chronic antigen stimulation, 0.1 μg/mL gp100 was added every day for 4 days. After 4 days of culture with tumor supernatant and chronic stimulation, the T cells were removed and analyzed for expression of exhaustion markers and functional assays.

Foxo1 = experiment: Nuclear vs cytoplasmic Foxo1 by western blot; type: cell-based, mouse; settings: GYY4137 0.5 mM, 3 days
Protocol: (FIG. 18C) NAD+ and nicotinamide quantification from metabolomics dataset.
For evaluation of the protein level, cell pellets were washed in PBS and lysed in RIPA buffer (Thermo Fisher Scientific, Waltham, MA), including protease/phosphatase inhibitors, vortexed, and incubated for 20 minutes on ice. Cell lysates were then centrifuged at 12,000 rpm for 15 min at 4° C. The supernatants were collected, and proteins were quantified with a BCA protein assay kit (Thermo Fisher Scientific, Waltham, MA). For immunoblot analyses, 20 μg of protein lysates per sample were denatured in 4× Loading dye and boiled using a heating block at 95 degrees for 10 minutes before loading to SDS gradient gels 4%-20% (Bio-Rad Criterion, 1h runs). Gels were semi-dry transferred onto PVDF, and the membranes were blocked with 3% milk in 0.1% TBST. The membraneNext, the membrane was probed with the following primary antibodies: anti-Prdx4 (Proteintech, 10703-1-AP), anti-eIF2a (Cell Signaling Technology, #9722), or anti-β-Actin (Signaling Technology, #4967L) overnight at 4° C. followed by one-hour incubation with HRP-conjugated secondary antibody (Cell Signaling Technology, Danvers, MA) and using a Clarity Western ECL Substrate (Bio-Rad, Hercules, CA).

Prdx4 knockdown T cells = experiment: Prdx4 siRNA knockdown Pmel T cells under Golgi/oxidative stress; type: cell-based, mouse
Protocol: (FIG. 22A) Pmel T cells were activated for 3 days before treatment with vehicle or 50 mM H2O2 for 6 hrs. Prdx4-Golgi colocalization was assessed by PLA using mouse anti-Giantin and rabbit anti-Prdx4 antibodies. (FIG. 22B) Activated Pmel T cells treated with vehicle or 50 mM H2O2 for 6 hrs or 24 hrs with Monensin (1 mM). PLA assay was performed using anti-Giantin and anti-Prdx4 antibodies. (FIG. 22C) Experimental design using Prdx4-targeted siRNA to silence expression of Prdx4 in Pmel T cells. (FIG. 22D) GM130 expression assessed under control versus Monensin (1 μM) conditions in T cells treated with control-siRNA or Prdx4-siRNA. (FIG. 22E) GM130 expression assessed under control versus 50 mM H2O2 conditions in T cells treated with control-siRNA or Prdx4-siRNA+/−0.5 mM GYY4137. (FIG. 22F) Protein translation assessed in Pmel T cells activated+/−GYY4137 and treated with control-siRNA or Prdx4-siRNA. (FIG. 22G) GM130 expression in Pmel T cells treated with vehicle, GYY4137, or Catalase (10 μg/mL). (FIGS. 22H and 22I) Site directed mutagenesis performed to mutate cysteine-54 of the Prdx4 gene. Prdx4-targeted shRNA was used to knock down expression of Prdx4 in Jurkat T cells, followed by transfection with plasmid containing wildtype or mutated Prdx4. (FIG. 22I) GM130 expression assessed after treatment with 50 mM H2O2+/−GYY4137. (FIG. 22J) B16-F10 tumors were injected s.c. into flanks of Pmel mice and grown to ˜100 mm2. TILs and T cells from tumor-draining lymph nodes were isolated via Ficoll spin followed by magnetic bead positive selection. FACS analysis of Prdx4 expression in TILs gated on PD1loLag3lo vs PD1hiLag3hi. (FIG. 22K) Lentiviral supernatant was generated using GFP-tagged control plasmid or GFP-tagged Prdx4-overexpression plasmid. Pmel T cells were transduced with control or Prdx4 lentivirus. Pmel T cells overexpressing Prdx4 and control T cells were treated with H2O2 (50 mM) followed by staining with anti-GM130.
Given the delicate redox balance necessary for the native disulfide bonds, it was postulated that a localized mechanism for the detection and elimination of ROS produced during the oxidative folding process may require Prdx4. Thus, it was hypothesized that ER and Golgi network stress mitigated by H2S is mediated through the Prdx4 localization and activity in these organelles. First, it was established if Prdx4 also localizes within the Golgi apparatus in T cells using a proximity ligation assay (PLA), a tool that allows in situ detection of endogenous proteins with high specificity and sensitivity, with antibodies directed against Giantin (a conserved Golgi membrane protein) and Prdx4. […] Next, using siRNA targeting Prdx4, expression of Prdx4 in CD8+ Pmel T cells was knocked down (FIG. 22C, FIGS. 23A and 23B). The cells were then subjected to conditions of oxidative and Golgi stress in the presence or absence of H2S treatment. […] Then, to determine whether the protective effect of H2S on Golgi stress is dependent on the presence of Prdx4, Golgi stress was induced in the presence or absence of H2S with control (siCtl) and Prdx4 knockdown (siPrdx4) T cells.

[1] = tumor supernatant + repeated gp100 +/− 0.5 mM GYY4137

## C1COCCN1.COc1ccc(P(=S)(S)N2CCOCC2)cc1 (stereo not drawn) [GYY4137]
Pmel CD8+ T cells
  Golgi stress (GM130 expression): reverted
Pmel CD8+ T cells; listed as H2S donor
  Golgi stress (GM130 expression): decrease in GM130 expression was mitigated
Pmel CD8+ T cells; in vitro TME exhaustion model
  ER stress (high phosphorylated-PERK): mitigated
Pmel CD8+ T cells; [1]
  Tcm phenotype: preserve the Tcm phenotype
  expression of exhaustion markers PD1, TIM3, Lag3, CD38: decreased expression of T cell exhaustion markers PD1, TIM3, Lag3, and CD38
Foxo1
  nuclear localization of Foxo1: increased nuclear localization of Foxo1
Prdx4 knockdown T cells; 50 mM H2O2 +/− 0.5 mM GYY4137
  GM130 expression under Golgi stress, control (siCtl) T cells: prevented the decrease in GM130 expression
Prdx4 knockdown T cells; 50 mM H2O2 +/− 0.5 mM GYY4137, listed as H2S
  GM130 expression under Golgi stress, Prdx4 knockdown (siPrdx4) T cells: protective effect was absent; also recorded: absent when Prdx4 was knocked down
Prdx4 knockdown T cells; +/− GYY4137
  increase in protein translation, Prdx4 knockdown T cells: not observed
